Data published in US6376688B1, “Modified polyunsaturated fatty acids” (Peptide Technology Limited, priority 1994, dated 2002).
pEC50: −log10 of the molar value. Read-outs that look alike come from different tables or passages of the source.

Legend:
[1] = tested on: chloroquine sensitive P. falciparum; assay: Direct antimalarial activity of novel fatty acids (malaria growth inhibition, 3H-hypoxanthine); format: cell-based
Description: The plates were then incubated overnight. Individual well contents were collected onto glass filter paper and incorporated 3H measured in a liquid scintillation counter. Percent growth inhibition of the parasite was then calculated.

[2] = tested on: TNFα production; assay: PHA-induced TNFα production by mononuclear cells (ELISA); format: cell-based, human
Description: (§1) Mononuclear cells were separated from peripheral blood of normal human donors as described by Ferrante and Thong (1978. . . ). The mononuclear cells were resuspended in RPMI-1640 containing 20% human AB serum and placed into 96 well microtrays (50 μl per well, cell density […]). Fatty acid (66 μm) was then added in 50 μl and pre-incubated with the cells for 30 min at 37° C. in 5% CO2. Mitogen (PHA, ConA, PWM, Staph. aureus) was then added in 100 μl and the cells incubated for 66 hours at 37° C. in 5% CO2 before the addition of tritiated thymidine (1 μCi/well). After a total of 72 h in culture the cells were harvested and proliferation (thymidine incorporation) and supernatant's assayed for the presence of cytokines. Cytokine levels in culture supernatants were determined by specific ELISA using anti-cytokine antibodies. The following cytokine levels were determined TNFα, TNFβ, interferon-γ, IL-1β, IL-2.

[3] = tested on: P. falciparum; assay: Fatty acid stimulated neutrophil-mediated anti-malarial activity; format: cell-based; settings: for inhibition relative to 22:6 (%) at 16 µM: Plasmodium falciparum
Description: To overcome fatty acid insolubility in aqueous solution mixed dipalmitoyl phophatidylcholine (DPC, 400 μg): fatty acid (100 μg) micells were prepared in HBSS by sonication. Neutrophils were pretreated for 30 min at 37° C. In some experiments PUFA were solubilized in ethanol. Aliquots of RBC (5×10^6 with […] parasitaemia) was mixed with neutrophils […] in the wells of a 96-well microtitre plate and than incubated for 2 hr at 37° C. in 5% CO2 in air before adding 1 μCi of 3H-hypoxanthine. The plates were then incubated overnight. Individual well contents were collected onto glass filter paper and incorporated 3H measured in a liquid scintillation counter. Percent growth inhibition of the parasite was then calculated.

[4] = tested on: human umbilical vein endothelial cells; assay: TNFα-induced expression of E-selectin (ELAM-1) by human umbilical vein endothelial cells; format: cell-based; settings: FIG. 5
Description: Human umbilical cord endothelial cells (5×10^4.passage 1) were plated onto the centre 60 wells of 96 well microtrays, the remaining wells were filled with pyrongen-free distilled water to reduce evaporation in the wells containing cells. The cells were fed with fresh medium (M199 supplemented with 20% FCS and endothelial cell growth supplement) every second day until confluent. On the day preceding the assay the cells were washed with HBSS and re-fed. At the time of assay the medium was aspirated and fatty acides prepared in media were added to each well and incubated for various times as shown in FIGS. At 37-0-C in 5% CO2. After this incubation the cells were washed and treated with either TNF or PMA before being washed three times in PBS and fixed (100 μl, 0.025% glutaraldehyde in PBS, overnight at 4° C.). The wells were washed with PBS and either anti-ELAM (Becton-Dickinson, 100 μl, 1/1.000 in M199 containing 20% FCS) or anti-ICAM (Immunotech, 100 μl, […] in M199 containing 20% FCS) was added and incubated for 1 hour at room temperature after which the wells were washed with PBS ant 100 μl of rabbit anti-mouse Ig-HRP conjugate was added (1/1.000. Dako). A further incubation at room temperature for one hour followed before the plates were washed three time prior to the addition of 100 μl of the substrate (ABTS). Colour development was measured at 410 nm in a microplate reader.

[5] = tested on: cytokine production (TNFα, interferon, IL-2); assay: PHA-induced cytokine production by human peripheral blood mononuclear cells (FIG. 3, FIG. 4); format: cell-based; settings: macrophage and T cell-derived cytokines
Description: as §1, with “cytokines.” for “cytokines. Cytokine levels in culture supernatants were determined by specific ELISA using anti-cytokine antibodies. The following cytokine levels were determined TNFα, TNFβ, interferon-γ, IL-1β, IL-2.”
Cytokine levels in culture supernatants were determined by specific ELISA using anti-cytokine antibodies. The following cytokine levels were determined TNFα, TNFβ, interferon-γ, IL-1β, IL-2.

[6] = neutrophil-mediated killing of P. falciparum, Table 2
[7] = Table 5, second printing (stands where Table 6 is expected)

Molecule	pEC50 ([1]; Plasmodium falciparum)	pEC50 [1]	% INHIBITION OF CYTOKINE PRODUCTION (PUFA AT 20 μM) ([2]; Table 5, first printing) [%]	% INHIBITION OF CYTOKINE PRODUCTION (PUFA AT 20 μM) [2, 7] [%]	further results
CC/C=C\CC(O)/C=C/C=C\CCCCCCCCOCC(=O)O (stereo not drawn) [16-OH-β-oxa 21:3 (n-3), Z,E,Z-(13-Hydroxy-9, 11, 15-octadecatrienyloxy)acetic acid]	4.40	–	–	–	inhibition at 20 µM ([2]; Homo sapiens, PUFA at 20 μM, Table 5, read-out: % INHIBITION OF CYTOKINE PRODUCTION (PUFA AT 20 μM)): 68%
CCCCCC(O)/C=C/C=C\C/C=C\CCCCCOCC(=O)O (stereo not drawn) [16-OH-β-oxa 21:3 (n-6), Z,Z,E-(13-Hydroxy-6,9,11-octadecatienyloxy)acetic acid]	–	4.30	71	71	% INHIBITION RELATIVE TO 22:6 AT 16 μM [3, 6]: 33%
CCCCCC=CCC=CCC=CCC=CCCCC(=O)O [20:4, 5,8,11,14-Eicosatetraenoic acid]	–	–	–	–	effect on TNFα-induced expression of E-selectin [4]: inhibit TNFα-induced expression of E-selection
CCC=CCC=CCC=CCC=CCC=CCCCC(=O)O [20:5, 5,8, 11, 14, 17-eicosapentaenoic]	–	–	–	–	effect on PHA-induced cytokine production [5]: inhibit in vitro production of macrophage and T cell-derived cytokines
CCC=CCC=CCC=CCC=CCC=CCC=CCCC(=O)O [22:6, 4,7, 10, 13, 16, 19-docosahexaenoic acid]	–	–	–	–	effect on PHA-induced cytokine production [5]: inhibit in vitro production of macrophage and T cell-derived cytokines
CCCCC/C=C\C/C=C\C/C=C\C/C=C\CCCCSC(CC(=O)O)C(=O)O (stereo not drawn) [α-carboxymethyl-β-thia 23.4 (n-6)]	–	4.30	–	–	–
CC/C=C\C/C=C\C/C=C\CCCCCCCCOCC(=O)O [β-oxa 21:3 (n-3), Z,Z,Z-(9, 12, 15-Octadecatrienyloxy) acetic acid]	4.52	–	–	39	inhibition relative to 22:6 (%) at 16 µM [3, 6]: 45%
CCCCC/C=C\C/C=C\C/C=C\CCCCCOCC(=O)O [β-oxa 21:3 (n-6), Z,Z,Z-(6,9, 12-Octadecatrienyloxy) acetic acid]	> 4.52	–	–	38	–
CC/C=C\C/C=C\C/C=C\C/C=C\CCCCCOCC(=O)O [β-oxa 21:4 (n-3), Z,Z,Z,Z-(6,9, 12, 15-Octadecatetraenyloxy) acetic acid]	4.40	–	–	–	inhibition relative to 22:6 (%) at 16 µM [3, 6]: 85%
CCCCC/C=C\C/C=C\C/C=C\C/C=C\CCCCOCC(=O)O [β-oxa 23.4 (n-6), Z,Z,Z,Z(5,8, 11, 14-Eicosatetraenyloxy) acetic acid]	–	> 4.52	25	25	–
CC/C=C\C/C=C\C/C=C\C/C=C\C/C=C\C/C=C\CCCOCC(=O)O [β-oxa 25.6 (n-3), Z,Z,Z,Z,Z,Z-(4,7, 10, 13, 16, 19-Docosahexaenyloxy) acetic acid]	> 4.22	–	–	–	–
CC/C=C\C/C=C\C/C=C\CCCCCCCCSCC(=O)O [β-thia 21:3 (n-3), Z,Z,Z-(9,12,15-Octadecatrienylthio)acetic acid]	4.46 to 4.52	–	–	17	inhibition relative to 22:6 (%) at 16 µM [3, 6]: 73%
CCCCC/C=C\C/C=C\C/C=C\C/C=C\CCCCSCC(=O)O [β-thia 23:4 (n-6), Z,Z,Z,Z-(5,8,11,14-Eicosatetraenylthio) acetic acid]	4.52 to 4.82	–	–	35	inhibition relative to 22:6 (%) at 16 µM [3, 6]: 150%
CC/C=C\C/C=C\C/C=C\CCCCCCCCSCCC(=O)O [γ-thia 22.3 (n-3), Z,Z,Z-(9,12,15-Octadecatrienylthio)proponionic acid]	–	4.35	25	25	–
CCCCC/C=C\C/C=C\C/C=C\CCCCCSCCC(=O)O [γ-thia 22.3 (n-6), Z,Z,Z-(6,9,12-Octadecatrienylthio)propionic acid]	–	4.35	41	41	–
Z,Z,Z,Z,Z,Z-(9,12,15-Octadecatrienylthio)acetic acid [β-thia 25.6 (n-3)]	–	4.60	90	90	% INHIBITION RELATIVE TO 22:6 AT 16 μM [3, 6]: 47%
Z,Z,Z,Z-(5,8,11,14-Eicosatetraenylthio) propionic acid [γ-thia 24.4 (n-6)]	–	4.82	34	34	% INHIBITION RELATIVE TO 22:6 AT 16 μM ([3]; Table 2, second printing (stands where Table 3 is expected)): 91%; % INHIBITION RELATIVE TO 22:6 AT 16 μM ([3]; Table 2, third printing (stands where Table 4 is expected)): 91%; % INHIBITION RELATIVE TO 22:6 AT 16 μM [3, 6]: 91%
Z,Z,Z,Z-(6,9,12-Octadecatrienylthio)acetic acid [β-thia 21:3 (n-6)]	–	4.30 to 4.52	17	17	–
